Experimental data as given in PMC10905588 (ACS Omega, 2024).
Where two headings read alike, the source gives them in different places. Marks after values point to notes of the source that are not given here.

Legend:
[1] = tested on: STZ-induced diabetic rat model; conditions: during the course of 0–300 min; cited from earlier work
[2] = tested on: streptozotocin (STZ)-induced diabetic rat model; assay: kidney and liver function tests in STZ-induced diabetic rats; assay type: in vivo, Wistar rats; conditions: serum, 28th day; 12 mg/kg oral (glibenclamide 0.5 mg/kg); mean ± SEM, n = 8
[3] = tested on: streptozotocin (STZ)-induced diabetic rat model; assay: blood glucose level in STZ-induced diabetic rats; conditions: WA1-WA3 12 mg/kg oral, glibenclamide 0.5 mg/kg; mean ± SEM, n = 8
acute toxicity study = assay type: in vivo
α-glucosidase [4] = biological target: T1, α-glucosidase (Saccharomyces cerevisiae, UniProt P53341); assay: in-vitro α-glucosidase inhibitory activity; assay type: biochemical
T1 sequence (P53341 whole entry): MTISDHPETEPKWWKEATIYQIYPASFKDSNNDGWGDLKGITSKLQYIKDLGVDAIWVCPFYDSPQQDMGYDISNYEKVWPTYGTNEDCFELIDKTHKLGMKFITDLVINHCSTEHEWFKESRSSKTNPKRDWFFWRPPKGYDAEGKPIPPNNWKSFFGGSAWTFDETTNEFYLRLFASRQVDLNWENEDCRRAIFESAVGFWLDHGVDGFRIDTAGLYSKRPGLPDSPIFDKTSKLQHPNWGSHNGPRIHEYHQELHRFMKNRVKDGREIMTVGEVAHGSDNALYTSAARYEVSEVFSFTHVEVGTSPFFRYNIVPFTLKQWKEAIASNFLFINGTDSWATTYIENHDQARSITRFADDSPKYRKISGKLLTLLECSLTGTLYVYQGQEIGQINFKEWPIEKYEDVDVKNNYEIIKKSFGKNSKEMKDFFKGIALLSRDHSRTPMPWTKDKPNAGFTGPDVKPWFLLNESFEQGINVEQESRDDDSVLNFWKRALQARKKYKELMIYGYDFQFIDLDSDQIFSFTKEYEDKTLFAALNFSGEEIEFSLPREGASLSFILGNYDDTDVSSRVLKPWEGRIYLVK

α-amylase [5] = biological target: T2, α-amylase (Homo sapiens, UniProt P04746); assay: in-vitro α-amylase inhibitory activity; assay type: biochemical
T2 sequence (P04746 16-511): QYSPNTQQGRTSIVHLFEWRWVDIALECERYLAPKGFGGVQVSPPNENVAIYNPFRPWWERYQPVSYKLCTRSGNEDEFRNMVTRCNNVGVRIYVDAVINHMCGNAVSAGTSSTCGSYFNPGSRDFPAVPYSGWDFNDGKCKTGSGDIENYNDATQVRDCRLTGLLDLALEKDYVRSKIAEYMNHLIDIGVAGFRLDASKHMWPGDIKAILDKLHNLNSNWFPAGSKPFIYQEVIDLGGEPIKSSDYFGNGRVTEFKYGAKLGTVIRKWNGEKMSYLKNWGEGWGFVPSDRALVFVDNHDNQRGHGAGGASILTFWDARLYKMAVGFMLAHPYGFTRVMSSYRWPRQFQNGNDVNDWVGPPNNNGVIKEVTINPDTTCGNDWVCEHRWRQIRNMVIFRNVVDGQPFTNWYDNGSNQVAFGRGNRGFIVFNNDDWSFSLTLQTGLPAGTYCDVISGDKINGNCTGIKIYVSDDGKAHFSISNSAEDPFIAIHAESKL

[6] = body weight of STZ-induced diabetic rats; conditions: WA1-WA3 12 mg/kg; mean ± SEM, n = 8
[7] = tested on: streptozotocin (STZ)-induced diabetic rat model; assay: glycated hemoglobin; conditions: for HbA1c (%): Table 4: dose printed 6 mg/kg for WA1-WA3, 0.5 mg/kg glibenclamide, n = 8; for HbA1c level: text: WA1, WA2, WA3 at 12 mg/kg, diabetic control 10.12%
[8] = tested on: streptozotocin (STZ)-induced diabetic rat model; assay: serum lipid profile in STZ-induced diabetic rats; assay type: in vivo, Wistar rats; conditions: 28th day, 12 mg/kg oral (glibenclamide 0.5 mg/kg), mean ± SEM, n = 8
α-glucosidase [9] = biological target: T1, α-glucosidase; conditions: read-out: IC50 α-glucosidase; cited from earlier work
α-amylase [10] = biological target: T2, α-amylase; conditions: read-out: IC50 α-amylase; cited from earlier work

| SMILES | lowering of blood glucose levels [1] | kidney: creatinine [2] | kidney: urea [2] | liver: ALP [2] | liver: ALT [2] | liver: AST [2] | blood glucose level, day 1st [3] | blood glucose level, day 7th [3] | blood glucose level, day 14th [3] | blood glucose level, day 21st [3] | blood glucose level, day 28th [3] | body weight, 1st day [6] | body weight, 7th day [6] | body weight, 14th day [6] | body weight, 21st day [6] | body weight, 28th day [6] | HbA1c (%) [7] | HbA1c level [7] | HDL [8] | LDL [8] | further results |
| --- | --- | --- | --- | --- | --- | --- | --- | --- | --- | --- | --- | --- | --- | --- | --- | --- | --- | --- | --- | --- | --- |
| COc1ccc2c(c1)[nH]c1c3c(c(C)cc12)OC(C)(C)C=C3 [O-methylmurrayamine A] | roughly 24.6% |  |  |  |  |  |  |  |  |  |  |  |  |  |  |  |  |  |  |  |  |
| COc1ccc2cc3[n+](cc2c1OC)CCc1cc2c(cc1-3)OCO2 [WA1, berberine] |  | 1.07 ± 0.06 mg/dL | 47.30 ± 1.51 mg/dL | 145.69 ± 3.78 U/L | 88.30 ± 2.45 U/L | 71.16 ± 1.79 U/L | 460.11 ± 5.17 mg/dL | 376.70 ± 4.98 mg/dL | 268.21 ± 5.79 mg/dL | 176.33 ± 4.69 mg/dL | 133.01 ± 5.18 mg/dL | 183.77 ± 5.01 | 180.33 ± 4.91 | 178.16 ± 4.96 | 174.80 ± 4.77 | 170.88 ± 4.84 | 7.55*** % | 7.55% | 35.11 ± 1.66 mg/dL | 56.33 ± 2.79 mg/dL | nontoxic up to (acute toxicity profile) (acute toxicity study; oral doses 5-500 mg/kg b.w., observed up to 14 days): up to 500 mg/kg; behavior in acute toxicity profile (acute toxicity study; up to 500 mg/kg (b.w.)): normal behavior; IC50 (α-glucosidase [4]): 569 µM; IC50 (α-amylase [5]): 200 µM; TC (total cholesterol) [8]: 92.67 ± 4.81 mg/dL; TG (triglycerides) [8]: 112.17 ± 3.10 mg/dL |
| COc1ccc(Cl)cc1C(=O)NCCc1ccc(S(=O)(=O)NC(=O)NC2CCCCC2)cc1 [glibenclamide, reference compound] |  | 1.01 ± 0.07 mg/dL | 40.17 ± 1.90 mg/dL | 133.67 ± 3.71 U/L | 71.43 ± 2.13 U/L | 55.03 ± 1.94 U/L | 458.12 ± 6.15 mg/dL | 349.36 ± 4.98 mg/dL | 248.70 ± 6.96 mg/dL | 138.49 ± 4.86 mg/dL | 102.19 ± 5.11 mg/dL | 184.11 ± 5.15 | 183.91 ± 4.87 | 189.16 ± 5.13 | 187.63 ± 4.86 | 194.37 ± 4.90 | 6.91*** % | 6.91% | 39.64 ± 1.51 mg/dL | 40.17 ± 1.80 mg/dL | TC (total cholesterol) [8]: 84.31 ± 4.95 mg/dL; TG (triglycerides) [8]: 102.97 ± 3.69 mg/dL |
| COc1cc2[nH]c3c4c(c(C)cc3c2cc1OC)OC(C)(C)C=C4 [koenidine] | ~22.5% |  |  |  |  |  |  |  |  |  |  |  |  |  |  |  |  |  |  |  |  |
| CC(C)=CCCC1(C)C=Cc2c(c(C)cc3c2[nH]c2ccccc23)O1 (stereo not drawn) [mahanimbine] |  |  |  |  |  |  |  |  |  |  |  |  |  |  |  |  |  |  |  |  | IC50 (α-glucosidase [9]): 299 µM; IC50 (α-amylase [10]): 250 µM |
| CN(C)C(=N)N=C(N)N [metformin, reference compound] | 25.9% |  |  |  |  |  |  |  |  |  |  |  |  |  |  |  |  |  |  |  |  |
